Experimental data taken from US20160009693A1, “HERBICIDAL COMPOUNDS” (SYNGENTA LIMITED, priority 2013, published 2016).

How the values were obtained:
Assay type in all cases: in vivo
Conditions in all cases: evaluated after 13 days
[1] = system: Amaranthus retoflexus (AMARE); test: Herbicidal glasshouse test, post-emergence, AMARE
Outline: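 This post-emergence glasshouse test used AMARE plants raised in standard soil for 8 days under controlled conditions (24/16° C. day/night, 14 hours light, 65% humidity). Foliage was sprayed with formulated compound in acetone/water (50:50) containing 0.5% Tween 20. Plants were then watered twice daily, and after 13 days percentage damage was rated on a five point scale.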

[2] = system: Alopecurus myosuroides (ALOMY); test: Herbicidal glasshouse test, pre-emergence, ALOMY
[3] = system: Amaranthus retoflexus (AMARE); test: Herbicidal glasshouse test, pre-emergence, AMARE
Outline: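 This pre-emergence glasshouse herbicide test used Amaranthus retoflexus sown in standard soil. After one day of cultivation, an aqueous spray made from the technical ingredient in 50:50 acetone/water with 0.5% Tween 20 was applied. Pots stayed at 24/16° C., 14 hours light, 65% humidity, with twice-daily watering. Damage was rated on a five point scale (1=0-19% up to 5=80-100%).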

[4] = system: Ipomoea hederacea (IPOHE); test: Herbicidal glasshouse test, pre-emergence, IPOHE
[5] = system: Alopecurus myosuroides (ALOMY); test: Herbicidal glasshouse test, post-emergence, ALOMY
Setaria faberi (SETFA) [6] = test: Herbicidal glasshouse test, post-emergence, SETFA
Outline: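 This post-emergence glasshouse herbicide test used potted Setaria faberi. Plants were cultivated for 8 days under controlled conditions (24/16° C. day/night, 14 hours light, 65% humidity) and then treated with an aqueous spray made from an acetone/water (50:50) solution containing 0.5% Tween 20. After 13 days of further growth with twice-daily watering, damage was rated on a five point scale (5=80-100%; 1=0-19%).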

[7] = system: Echinochloa crus-galli (ECHCG); test: Herbicidal glasshouse test, pre-emergence, ECHCG
Outline: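 In this pre-emergence glasshouse test, ECHCG seeds sown in pots of standard soil were sprayed one day after sowing with the test material in acetone/water (50:50) containing 0.5% Tween 20. Plants were kept at 24/16° C., 14 hours light, 65% humidity, and watered twice daily. Percentage damage was rated after 13 days on a 1–5 scale.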

[8] = system: Echinochloa crus-galli (ECHCG); test: Herbicidal glasshouse test, post-emergence, ECHCG
Outline: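 In this post-emergence glasshouse test, barnyard grass (ECHCG) was cultivated for 8 days under controlled conditions (24/16° C. day/night, 14 hours light, 65% humidity). It was then sprayed with an aqueous solution of the technical compound in acetone / water (50:50) with 0.5% Tween 20. Plants were kept under the same conditions and watered twice daily. After 13 days, percentage damage was rated on a five point scale (5=80-100%; 1=0-19%).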

Solanum nigrum (SOLNI) [9] = test: Herbicidal glasshouse test, pre-emergence, SOLNI
Outline: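 This pre-emergence glasshouse herbicide test used Solanum nigrum sown in standard soil. One day after sowing, pots were sprayed with the compound in acetone/water (50:50) with 0.5% Tween 20. They were then grown at 24/16° C., with 14 hours light and 65% humidity, and watered twice daily. Percentage damage was scored after 13 days on a five point scale, where 5=80-100% and 1=0-19%.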

Solanum nigrum (SOLNI) [10] = test: Herbicidal glasshouse test, post-emergence, SOLNI
Setaria faberi (SETFA) [11] = test: Herbicidal glasshouse test, pre-emergence, SETFA
[12] = system: Ipomoea hederacea (IPOHE); test: Herbicidal glasshouse test, post-emergence, IPOHE

| SMILES | POST Application AMARE, percentage damage (five point scale) ([1]; applied at 1000 g/h) | PRE Application ALOMY, percentage damage (five point scale) ([2]; applied at 1000 g/h) | PRE Application AMARE, percentage damage (five point scale) ([3]; applied at 1000 g/h) | PRE Application IPOHE, percentage damage (five point scale) ([4]; applied at 1000 g/h) | POST Application ALOMY, percentage damage (five point scale) ([5]; applied at 1000 g/h) | POST Application SETFA, percentage damage (five point scale) (Setaria faberi (SETFA) [6]; applied at 1000 g/h) | PRE Application ECHCG, percentage damage (five point scale) ([7]; applied at 1000 g/h) | POST Application ECHCG, percentage damage (five point scale) ([8]; applied at 1000 g/h) | PRE Application SOLNI, percentage damage (five point scale) (Solanum nigrum (SOLNI) [9]; applied at 1000 g/h) | POST Application SOLNI, percentage damage (five point scale) (Solanum nigrum (SOLNI) [10]; applied at 1000 g/h) | PRE Application SETFA, percentage damage (five point scale) (Setaria faberi (SETFA) [11]; applied at 1000 g/h) | POST Application IPOHE, percentage damage (five point scale) ([12]; applied at 1000 g/h) | also measured |
| --- | --- | --- | --- | --- | --- | --- | --- | --- | --- | --- | --- | --- | --- |
| CSc1cccc(-n2c(=O)c(C(=O)Nc3nnnn3C)nn(C)c2=O)c1 [Compound 1.043] | 5 (5=80-100%) | 4 (4=60-79%) | 5 (5=80-100%) | 5 (5=80-100%) | 5 (5=80-100%) | 4 (4=60-79%) | 5 (5=80-100%) | 5 (5=80-100%) | 5 (5=80-100%) | 5 (5=80-100%) | 2 (2=20-39%) | 5 (5=80-100%) |  |
| Cn1nnnc1NC(=O)c1nn(C)c(=O)n(-c2cc(F)c(F)c(F)c2)c1=O [Compound 1.044] | 5 (5=80-100%) | 5 (5=80-100%) | 5 (5=80-100%) | 5 (5=80-100%) | 5 (5=80-100%) | 5 (5=80-100%) | 5 (5=80-100%) | 5 (5=80-100%) | 5 (5=80-100%) | 5 (5=80-100%) | 5 (5=80-100%) | 5 (5=80-100%) |  |
| COc1ccc(-n2c(=O)c(C(=O)Nc3nnnn3C)nn(C)c2=O)cc1Cl [Compound 1.045] | 5 (5=80-100%) | 5 (5=80-100%) | 5 (5=80-100%) | 5 (5=80-100%) | 5 (5=80-100%) | 5 (5=80-100%) | 5 (5=80-100%) | 5 (5=80-100%) | 5 (5=80-100%) | 5 (5=80-100%) | 5 (5=80-100%) | 5 (5=80-100%) |  |
| CC(C)c1ccc(-n2c(=O)c(C(=O)Nc3nnnn3C)nn(C)c2=O)cc1 [Compound 1.046] | 5 (5=80-100%) | 5 (5=80-100%) | 5 (5=80-100%) | 5 (5=80-100%) | 5 (5=80-100%) | 5 (5=80-100%) | 5 (5=80-100%) | 5 (5=80-100%) | 5 (5=80-100%) | 5 (5=80-100%) | 5 (5=80-100%) | 5 (5=80-100%) |  |
| Cn1nnnc1NC(=O)c1nn(C)c(=O)n(-c2ccc(Cl)c(C#N)c2)c1=O [Compound 1.047] |  |  |  |  |  |  |  |  |  |  |  |  | POST Application AMARE, percentage damage (five point scale) ([1]; applied at 250 g/ha): 5 (5=80-100%); PRE Application ALOMY, percentage damage (five point scale) ([2]; applied at 250 g/ha): 1 (1=0-19%); PRE Application AMARE, percentage damage (five point scale) ([3]; applied at 250 g/ha): 5 (5=80-100%); PRE Application IPOHE, percentage damage (five point scale) ([4]; applied at 250 g/ha): 5 (5=80-100%); POST Application ALOMY, percentage damage (five point scale) ([5]; applied at 250 g/ha): 3 (3=40-59%); POST Application SETFA, percentage damage (five point scale) (Setaria faberi (SETFA) [6]; applied at 250 g/ha): 1 (1=0-19%); PRE Application ECHCG, percentage damage (five point scale) ([7]; applied at 250 g/ha): 3 (3=40-59%); POST Application ECHCG, percentage damage (five point scale) ([8]; applied at 250 g/ha): 3 (3=40-59%); PRE Application SOLNI, percentage damage (five point scale) (Solanum nigrum (SOLNI) [9]; applied at 250 g/ha): 5 (5=80-100%); POST Application SOLNI, percentage damage (five point scale) (Solanum nigrum (SOLNI) [10]; applied at 250 g/ha): 5 (5=80-100%); PRE Application SETFA, percentage damage (five point scale) (Setaria faberi (SETFA) [11]; applied at 250 g/ha): 1 (1=0-19%); POST Application IPOHE, percentage damage (five point scale) ([12]; applied at 250 g/ha): 4 (4=60-79%) |
| COc1cc(-n2c(=O)c(C(=O)Nc3nnnn3C)nn(C)c2=O)ccc1F [Compound 1.048] | 5 (5=80-100%) | 5 (5=80-100%) | 5 (5=80-100%) | 5 (5=80-100%) | 5 (5=80-100%) | 5 (5=80-100%) | 5 (5=80-100%) | 5 (5=80-100%) | 5 (5=80-100%) | 5 (5=80-100%) | 5 (5=80-100%) | 5 (5=80-100%) |  |
| CCCn1nnnc1NC(=O)c1nn(C)c(=O)n(-c2ccc(F)cc2)c1=O [Compound 1.049] | 5 (5=80-100%) | 5 (5=80-100%) | 5 (5=80-100%) | 5 (5=80-100%) | 5 (5=80-100%) | 5 (5=80-100%) | 5 (5=80-100%) | 5 (5=80-100%) | 5 (5=80-100%) | 5 (5=80-100%) | 5 (5=80-100%) | 5 (5=80-100%) |  |
| Cn1nnnc1NC(=O)c1nn(C)c(=O)n(Cc2ccc(C#N)cc2)c1=O [Compound 1.050] | 5 (5=80-100%) | 5 (5=80-100%) | 5 (5=80-100%) | 5 (5=80-100%) | 5 (5=80-100%) | 1 (1=0-19%) | 5 (5=80-100%) | 5 (5=80-100%) | 5 (5=80-100%) | 5 (5=80-100%) | 2 (2=20-39%) | 5 (5=80-100%) |  |
| Cc1ccc(Cn2c(=O)c(C(=O)Nc3nnnn3C)nn(C)c2=O)cc1 [Compound 1.051] | 5 (5=80-100%) | 5 (5=80-100%) | 5 (5=80-100%) | 5 (5=80-100%) | 5 (5=80-100%) | 2 (2=20-39%) | 5 (5=80-100%) | 5 (5=80-100%) | 5 (5=80-100%) | 5 (5=80-100%) | 1 (1=0-19%) | 5 (5=80-100%) |  |
| Cc1cccc(Cn2c(=O)c(C(=O)Nc3nnnn3C)nn(C)c2=O)c1 [Compound 1.052] | 5 (5=80-100%) | 5 (5=80-100%) | 5 (5=80-100%) | 2 (2=20-39%) | 5 (5=80-100%) | 1 (1=0-19%) | 5 (5=80-100%) | 5 (5=80-100%) | 5 (5=80-100%) | 5 (5=80-100%) | 1 (1=0-19%) | 5 (5=80-100%) |  |
